“Also recorded” adds a separate entry of the source.
Key:
[1] = Phase 1 study, Dose-Proportionality Extension Period: PK of plasma total Mo and PUF Mo (incl. dose-normalized, power model); assay type: in vivo, healthy adult participants; details: any of the treatments evaluated
Description: (§1) The safety and tolerability of the 2 formulations of BC-TTM in healthy participants was also assessed. BC-TTM pharmacokinetics (PK) in plasma as measured via total molybdenum (Mo) and plasma ultrafiltrate (PUF) Mo was determined.
The Dose-Proportionality Extension Period was a re-randomized, open-label, parallel group design to assess the dose-proportionality between 2.5 mg (2×1.25 mg), 5 mg (4×1.25 mg), 10 mg (8×1.25 mg), and 30 mg (24×1.25 mg) EC mini-tablet doses. The 15 mg (12×1.25 mg) dose was not repeated during the Dose-Proportionality Extension Period.
The Dose-Proportionality Extension Period was conducted following completion of the Two-way Crossover Period of the study and after an at least 14-day washout period. Participants were re-randomized as follows: • Treatment C (N=10-12): BC-TTM 2.5 mg (2×1.25 mg EC mini-tablets) • Treatment D (N=10-12): BC-TTM 5 mg (4×1.25 mg EC mini-tablets) • Treatment E (N=10-12): BC-TTM 10 mg (8×1.25 mg EC mini-tablets) • Treatment F (N=10-12): BC-TTM 30 mg (24×1.25 ma EC mini-tablets)
The dose-proportionality evaluation included data obtained from Treatment A of the Two-way Crossover Period (12×1.25 mg EC mini-tablets) to represent a dose of 15 mg,
Re-randomized treatment assignment were based on Baseline body mass index (BMI). Two strata for Baseline BM (<25, 25 to <32 kg/m^2) were used. […]

[2] = Phase 1 study: safety and tolerability (TEAEs, TESAEs, clinical laboratory); assay type: in vivo, healthy adult participants
Description: as §1

C[N+](C)(C)CCO.C[N+](C)(C)CCO.[SH-].[SH-].[S]=[Mo]=[S] [BC-TTM, Bis-choline tetrathiomolybdate]
effect of body weight or BMI on BC-TTM PK [1]: apparently not affected; also recorded: There was no apparent effect of body | deaths or TESAEs ([2]; all treatments): No deaths or TESAEs were reported | severity of TEAEs ([2]; all treatments, except 2 Grade 4 events after Treatment B): All TEAEs were Grade 1 or 2 in severity, | safety profile and tolerability ([2]; single oral dose 2.5 mg to 30 mg as EC mini-tablets and as a 15 mg EC tablet): acceptable safety profile and was generally well-tolerated

Reference: patent publication US20240100088A1, “NOVEL FORMULATION FOR TREATING COPPER METABOLISM-ASSOCIATED DISEASES OR DISORDERS” (Alexion Pharmaceuticals, Inc., priority 2021, published 2024)
